Where two headings read alike, the source gives them in different places.
Legend:
JeKo-1 cells = assay: Antiproliferative effect, MTS cell viability assay, JeKo-1 cells; type: cell-based; details: Homo sapiens; JeKo-1 mantle cell lymphoma cells; read-out: IC50 (anti-proliferation) JeKO-1 cells
In short: (§1)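 Readout was MTS-derived formazan absorbance (490 nm) reflecting metabolically active cells. Treatment lasted 72 h over a 0–10 μM range (0.001, 0.01, 0.1, 1, 10 μM) in JeKo-1 and Mino B-cell malignancy cells.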

Mino cells = assay: Antiproliferative effect, MTS cell viability assay, Mino cells; type: cell-based; details: Homo sapiens, Mino mantle cell lymphoma cells, read-out: IC50 (anti-proliferation) Mino cells
In short: as §1

BTK = BTK (Homo sapiens, UniProt Q06187); assay: Degradation of BTK protein in Namalwa cells (Western blot; DC50, Dmax); details: for DC50: cell line not given
BTK, sequence (Q06187 whole entry): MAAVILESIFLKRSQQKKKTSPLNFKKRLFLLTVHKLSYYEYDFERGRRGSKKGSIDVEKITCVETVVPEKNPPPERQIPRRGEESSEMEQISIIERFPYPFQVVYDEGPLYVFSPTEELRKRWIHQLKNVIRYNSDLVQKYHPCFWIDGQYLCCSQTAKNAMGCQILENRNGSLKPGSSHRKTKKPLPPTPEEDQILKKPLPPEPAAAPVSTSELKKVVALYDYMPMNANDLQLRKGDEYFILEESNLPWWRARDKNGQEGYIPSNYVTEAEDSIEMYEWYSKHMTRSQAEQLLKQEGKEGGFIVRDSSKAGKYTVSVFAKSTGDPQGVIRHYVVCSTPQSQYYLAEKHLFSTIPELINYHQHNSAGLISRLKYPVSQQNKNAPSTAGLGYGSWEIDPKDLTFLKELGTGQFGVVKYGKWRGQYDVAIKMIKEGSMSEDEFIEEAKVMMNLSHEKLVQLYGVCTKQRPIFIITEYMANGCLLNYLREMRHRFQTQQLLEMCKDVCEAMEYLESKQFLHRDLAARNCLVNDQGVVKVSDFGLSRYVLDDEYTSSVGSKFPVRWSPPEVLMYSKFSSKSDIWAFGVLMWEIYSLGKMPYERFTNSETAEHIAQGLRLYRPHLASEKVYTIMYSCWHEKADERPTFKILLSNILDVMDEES

[1] = read-out: DC50 (BTK degradation), concentration giving 50% reduction of BTK expression level
[2] = read-out: Dmax (BTK degradation)

| SMILES | Dmax (BTK) [%] | DC50 (BTK; BTK degradation) [nM] | DC50 (BTK; [1]) [nM] | Dmax (BTK; [2]) [%] | IC50 (JeKo-1 cells) [nM] | IC50 (Mino cells; MINO) [nM] | IC50 (Mino cells) [nM] |
| --- | --- | --- | --- | --- | --- | --- | --- |
| NC(=O)c1c(-c2ccc(Oc3ccccc3)cc2)nn2c1NCCC2C1CCN(CC2CCN(C(=O)N3CCN(Cc4ccc5c(c4)C(=O)N(C4CCC(=O)NC4=O)C5=O)CC3)CC2)CC1 (centres unmarked) [Compound 359, 7-(1-((1-(4-((2-(2,6-dioxopiperidin-3-yl)-1,3-dioxoisoindolin-5-yl)methyl)piperazine-1-carbonyl)piperidin-4-yl)methyl)piperidin-4-yl)-2-(4-phenoxyphenyl)-4,5,6,7-tetrahydropyrazolo[1,5-a]pyrimidine-3-carboxamide] | > 50 | > 50 |  |  | > 10000 | > 10000 |  |
| NC(=O)c1c(-c2ccc(Oc3ccccc3)cc2)nn2c1NCCC2C1CCN(CC2CCN(CCN3CCC(c4ccc5c(c4)C(=O)N(C4CCC(=O)NC4=O)C5=O)CC3)CC2)CC1 (centres unmarked) [Compound 319, 7-(1-((1-(2-(4-(2-(2,6-dioxopiperidin-3-yl)-1,3-dioxoisoindolin-5-yl)piperidin-1-yl)ethyl)piperidin-4-yl)methyl)piperidin-4-yl)-2-(4-phenoxyphenyl)-4,5,6,7-tetrahydropyrazolo[1,5-a]pyrimidine-3-carboxamide] | > 75 | 10 to 50 |  |  | > 10000 | 1000 to 10000 |  |
| Nc1ncnc2c1c(-c1ccc(Oc3ccccc3)cc1)nn2[C@@H]1CCCN(C(=O)N2CC(N3CCN(c4ccc5c(c4)C(=O)N([C@@H]4CCC(=O)NC4=O)C5=O)CC3)C2)C1 [Compound 491, 5-(4-(1-((R)-3-(4-amino-3-(4-phenoxyphenyl)-1H-pyrazolo[3,4-d]pyrimidin-1-yl)piperidine-1-carbonyl)azetidin-3-yl)piperazin-1-yl)-2-((R)-2,6-dioxopiperidin-3-yl)isoindoline-1,3-dione] |  |  | 10 to 50 | > 90 | < 1000 | < 1000 |  |
| Nc1ncnc2c1c(-c1ccc(Oc3ccccc3)cc1)nn2C1CCN(CC2CCN(CC3CCN(c4ccc(N5CCC(=O)NC5=O)cc4)CC3)CC2)CC1 [Compound 552] |  |  | < 10 | > 90 | < 1000 |  | < 1000 |
| Nc1ncnc2c1c(-c1ccc(Oc3ccccc3)cc1)nn2C1CCN(CC2CCN(CC3CN(c4ccc5c(c4)CN(C4CCC(=O)NC4=O)C5=O)C3)C2)CC1 (centres unmarked) [Compound 424, 3-(5-(3-((3-((4-(4-amino-3-(4-phenoxyphenyl)-1H-pyrazolo[3,4-d]pyrimidin-1-yl)piperidin-1-yl)methyl)pyrrolidin-1-yl)methyl)azetidin-1-yl)-1-oxoisoindolin-2-yl)piperidine-2,6-dione] |  |  | 10 to 50 | > 90 | < 1000 | < 1000 |  |
| Nc1ncnc2c1c(-c1ccc(Oc3ccccc3)cc1)nn2C1CCN(CCN2CCN(CCCSc3ccc4c(c3)CN(C3CCC(=O)NC3=O)C4=O)CC2)CC1 (centres unmarked) [Compound 468] |  |  | < 10 | > 90 | 1000 to 10000 | 1000 to 10000 |  |
| Nc1ncnc2c1c(-c1ccc(Oc3ccccc3)cc1)nn2C1CCN(C2CCN(CC3CCN(c4ccc(N5CCC(=O)NC5=O)cc4)CC3)C2)CC1 (centres unmarked) [Compound 573, 1-(4-(4-((3-(4-(4-amino-3-(4-phenoxyphenyl)-1H-pyrazolo[3,4-d]pyrimidin-1-yl)piperidin-1-yl)pyrrolidin-1-yl)methyl)piperidin-1-yl)phenyl)dihydropyrimidine-2,4(1H,3H)-dione] |  |  | < 10 | > 75 | < 1000 | 1000 to 10000 |  |
| NC(=O)c1c(-c2ccc(Oc3ccccc3)cc2)nn2c1NCC[C@H]2C1CCN(CC2CCN(C(=O)N3CCC(C4CCN(c5ccc6c(c5)CN(C5CCC(=O)NC5=O)C6=O)CC4)CC3)CC2)CC1 (stereo partly drawn) [Compound 406, (7S)-7-(1-((1-(1′-(2-(2,6-dioxopiperidin-3-yl)-1-oxoisoindolin-5-yl)-[4,4′-bipiperidine]-1-carbonyl)piperidin-4-yl)methyl)piperidin-4-yl)-2-(4-phenoxyphenyl)-4,5,6,7-tetrahydropyrazolo[1,5-a]pyrimidine-3-carboxamide] |  |  | < 10 | > 90 | 1000 to 10000 | < 1000 |  |
| NC(=O)c1c(-c2ccc(Oc3ccccc3)cc2)nn2c1NCC[C@H]2C1CCN(CC2CCN(CCC3CCN(c4ccc5c(c4)CN(C4CCC(=O)NC4=O)C5=O)CC3)CC2)CC1 (stereo partly drawn) [Compound 334, (7S)-7-(1-((1-(2-(1-(2-(2,6-dioxopiperidin-3-yl)-1-oxoisoindolin-5-yl)piperidin-4-yl)ethyl)piperidin-4-yl)methyl)piperidin-4-yl)-2-(4-phenoxyphenyl)-4,5,6,7-tetrahydropyrazolo[1,5-a]pyrimidine-3-carboxamide] | > 75 | 10 to 50 |  |  | > 10000 | > 10000 |  |
| NC(=O)c1c(-c2ccc(Oc3ccccc3)cc2)nn2c1NCCC2C1CCN(C(=O)N2CCC(CN3CCN(c4ccc5c(c4)CN(C4CCC(=O)NC4=O)C5=O)CC3)CC2)CC1 (centres unmarked) [Compound 276, 7-(1-(4-((4-(2-(2,6-dioxopiperidin-3-yl)-1-oxoisoindolin-5-yl)piperazin-1-yl)methyl)piperidine-1-carbonyl)piperidin-4-yl)-2-(4-phenoxyphenyl)-4,5,6,7-tetrahydropyrazolo[1,5-a]pyrimidine-3-carboxamide] | > 90 | < 10 |  |  | < 1000 | < 1000 |  |

Further lines, with some results ahead:

| Dmax (BTK) [%] | DC50 (BTK; BTK degradation) [nM] | DC50 (BTK; [1]) [nM] | Dmax (BTK; [2]) [%] | SMILES | IC50 (JeKo-1 cells) [nM] | IC50 (Mino cells; MINO) [nM] | IC50 (Mino cells) [nM] |
| --- | --- | --- | --- | --- | --- | --- | --- |
| > 90 | < 10 |  |  | NC(=O)c1c(-c2ccc(Oc3ccccc3)cc2)nn2c1NCCC2C1CCN(CC2CCN(C(=O)N3CCC(N4CCN(c5ccc6c(c5)CN(C5CCC(=O)NC5=O)C6=O)CC4)CC3)CC2)CC1 (centres unmarked) [Compound 364, 7-(1-((1-(4-(4-(2-(2,6-dioxopiperidin-3-yl)-1-oxoisoindolin-5-yl)piperazin-1-yl)piperidine-1-carbonyl)piperidin-4-yl)methyl)piperidin-4-yl)-2-(4-phenoxyphenyl)-4,5,6,7-tetrahydropyrazolo[1,5-a]pyrimidine-3-carboxamide] | < 1000 | < 1000 |  |
| > 75 | 10 to 50 |  |  | Nc1ncnc2c1c(-c1ccc(Oc3ccccc3)cc1)nn2C1CCN(C2CCN(C(=O)N3CCC(CCCC4CCN(c5ccc6c(c5)CN(C5CCC(=O)NC5=O)C6=O)CC4)CC3)CC2)CC1 (centres unmarked) [Compound 266, 3-(5-(4-(3-(1-(4-(4-amino-3-(4-phenoxyphenyl)-1H-pyrazolo[3,4-d]pyrimidin-1-yl)-[1,4′-bipiperidine]-1′-carbonyl)piperidin-4-yl)propyl)piperidin-1-yl)-1-oxoisoindolin-2-yl)piperidine-2,6-dione] | > 10000 | 1000 to 10000 |  |
| > 75 | 10 to 50 |  |  | Nc1ncnc2c1c(-c1ccc(Oc3ccccc3)cc1)nn2[C@@H]1CCCN(C2CCN(C(=O)N3CCC(CCCN4CCC(c5ccc6c(c5)CN(C5CCC(=O)NC5=O)C6=O)CC4)CC3)CC2)C1 (stereo partly drawn) [Compound 198, 3-(5-(1-(3-(1-((R)-3-(4-amino-3-(4-phenoxyphenyl)-1H-pyrazolo[3,4-d]pyrimidin-1-yl)-[1,4′-bipiperidine]-1′-carbonyl)piperidin-4-yl)propyl)piperidin-4-yl)-1-oxoisoindolin-2-yl)piperidine-2,6-dione] | 1000 to 10000 | 1000 to 10000 |  |
| > 90 | 10 to 50 |  |  | Nc1ncnc2c1c(-c1ccc(Oc3ccccc3)cc1)nn2C1CCN(C2CCN(C(=O)N3CCC(CCCN4CCN(c5ccc6c(c5)C(=O)N(C5CCC(=O)NC5=O)C6=O)CC4)CC3)CC2)CC1 (centres unmarked) [Compound 263, 5-(4-(3-(1-(4-(4-amino-3-(4-phenoxyphenyl)-1H-pyrazolo[3,4-d]pyrimidin-1-yl)-[1,4′-bipiperidine]-1′-carbonyl)piperidin-4-yl)propyl)piperazin-1-yl)-2-(2,6-dioxopiperidin-3-yl)isoindoline-1,3-dione] | > 10000 | 1000 to 10000 |  |
|  |  | 10 to 50 | > 75 | Nc1ncnc2c1c(-c1ccc(Oc3ccccc3)cc1)nn2C1CCN(C2CCN(CC3CCN(c4ccc5c(c4)CN(C4CCC(=O)NC4=O)C5=O)CC3)C2)CC1 (centres unmarked) [Compound 450, 3-(5-(4-((3-(4-(4-amino-3-(4-phenoxyphenyl)-1H-pyrazolo[3,4-d]pyrimidin-1-yl)piperidin-1-yl)pyrrolidin-1-yl)methyl)piperidin-1-yl)-1-oxoisoindolin-2-yl)piperidine-2,6-dione] | 1000 to 10000 | 1000 to 10000 |  |
| > 90 | < 10 |  |  | Nc1ncnc2c1c(-c1ccc(Oc3ccccc3)cc1)nn2C1CCN(C2CCN(C(=O)N3CCN(CC4CCN(c5ccc6c(c5)CN(C5CCC(=O)NC5=O)C6=O)CC4)CC3)CC2)CC1 (centres unmarked) [Compound 242, 3-(5-(4-((4-(4-(4-amino-3-(4-phenoxyphenyl)-1H-pyrazolo[3,4-d]pyrimidin-1-yl)-[1,4′-bipiperidine]-1′-carbonyl)piperazin-1-yl)methyl)piperidin-1-yl)-1-oxoisoindolin-2-yl)piperidine-2,6-dione] | 1000 to 10000 | < 1000 |  |
|  |  | < 10 | > 90 | Nc1ncnc2c1c(-c1ccc(Oc3ccccc3)cc1)nn2C1CCN([C@@H]2CCN(CC3CCN(c4ccc5c(c4)C(=O)N(C4CCC(=O)NC4=O)C5=O)CC3)C2)CC1 (stereo partly drawn) [Compound 449b, 5-(4-(((R)-3-(4-(4-amino-3-(4-phenoxyphenyl)-1H-pyrazolo[3,4-d]pyrimidin-1-yl)piperidin-1-yl)pyrrolidin-1-yl)methyl)piperidin-1-yl)-2-(2,6-dioxopiperidin-3-yl)isoindoline-1,3-dione] | < 1000 | < 1000 |  |
